Assay [1] is described as follows: HAP crystallisation induction period (synergy with other treatments). The assay is classed as physicochemical. Particulars: drug effect simulated by modifying calcium and phosphate concentrations; control 8 minutes. The procedure:
Experimental: hydroxyapatite (HAP) was crystallised by mixing appropriate concentrations of calcium and phosphate at pH 7.4. The effect of cinacalcet and sevelamer was simulated by suitably modifying the calcium and phosphate concentrations. The induction period (time required for HAP to begin to crystallise) was recorded as the analytical signal.

Assay [2] deals with vit D-induced cardiovascular calcification in rats. The assay is described as follows: Inhibition of vit D-induced (300,000 IU/kg x 3) cardiovascular calcification by s.c. IP6. The assay is classed as in vivo, male SD rats. The note with it: s.c. The procedure: Experimental: male SD rats were divided into 9 groups. Two of said groups (sham and control groups) received s.c. saline 2 ml/kg; 6 groups received s.c. […] One group was treated with a s.c. Alzet pump loaded with 200 mg/ml IP6. Calcification was induced by oral administration of 300,000 IU/kg vitamin D (2 ml/kg) for 3 days starting on treatment day 3. […] The calcium content in heart, aorta and kidneys was determined after treatment for 7 days.

For the molecule `C[C@@H](NCCCc1cccc(C(F)(F)F)c1)c1cccc2ccccc12` [cinacalcet, reference compound], in assay [1], the “induction time (without IP6)” value is 14 min.

`O=P([O-])([O-])OP(=O)([O-])[O-].[Na+].[Na+].[Na+].[Na+]` [pyrophosphate, sodium pyrophosphate, reference compound]: the “dose causing the same effect as 10 mg/kg IP6” value in assay [2] was found to be 28 mg/kg. The “efficacy against calcification (in words)” value in assay [2] (at higher doses than IP6) is reported as “good efficacy”.

The values are drawn from EP2974714B1, “USE OF DERIVATIVES WITH C-O-P BONDS IN PATIENTS WITH RENAL FAILURE” (LABORATORIS SANIFIT, S.L., priority 2013, dated 2014).
